Data taken from PMC10298982, “Stability Characterization of the Novel Anti-Cancer HM-10/10 HDL-Mimetic Peptide” (International Journal of Molecular Sciences, 2023).

Columns and labels:
[1] = tested on: Sprague-Dawley rat plasma proteins; settings: 2.5 h, 2 µM, pH 7.4
[2] = tested on: beagle dog plasma proteins; settings: 2.5 h, 2 µM, pH 7.4
[3] = tested on: cynomolgus monkey plasma proteins; settings: 2.5 h, 2 µM, pH 7.4
[4] = in vitro; settings: CD-1, mouse, plasma
[5] = in vitro; settings: Sprague-Dawley, rat, plasma, pH 7.4
[6] = in vitro; settings: beagle, dog, plasma, pH 7.4
[7] = in vitro; settings: cynomolgus monkey, plasma, pH 7.4

With `CC(=O)CC(c1ccccc1)c1c(O)c2ccccc2oc1=O` (stereo not shown) [Warfarin] the “% Protein Free Mean ± SD” value [1] was 0.7 ± 0.1%, the “% Protein Free Mean ± SD” value [2] was 3.1 ± 0.4% and the “% Protein Free Mean ± SD” value [3] was 0.9 ± 0.1%. For the same compound, the remaining at 2.5 h, 2 µM ([4]; pH 7.4) was 108%, the fraction unbound at 2.5 h, 2 µM ([4]; pH 7.4, % Protein Free Mean ± SD) was 0.04 ± 0.002 and the fraction unbound at 2.5 h, 2 µM ([4]; pH 7.4, Fu (Unbound Fraction) Mean ± SD) was 0.0398 ± 0.0016. The remaining at 2.5 h, 2 µM [5] was 105%, the fraction unbound at 2.5 h, 2 µM [6] was 0.0305 ± 0.0036 and the remaining at 2.5 h, 2 µM [6] was 105%. For the same compound, the fraction unbound at 2.5 h, 2 µM [7] was 0.0086 ± 0.00116.
